Measured values from patent publication US20060079453A1, “Hla binding peptides and their uses” (priority 2002, published 2006).

Key:
Assay in all cases: biochemical
Type in all cases: binding
[1] = target: HLA-DR DRB3*0101 (DR52) (Homo sapiens, UniProt P01903+P79483)
[2] = target: HLA-DR DRB1*0401 (DR4) (Homo sapiens, UniProt P01903+P01911, A100K/A169T/F76Y/I96L/K127E/L162R/M171V/N62H/P40V/Q125Y/R42H/S133A/S149N/S66Y/V115G/V209L/W38E); conditions: DRB1 *0401
[3] = target: HLA-DR DRB5*0101 (DR51) (Homo sapiens, UniProt P01903+Q30154); conditions: DRB5 *0101
[4] = target: HLA-DR DRB1*0701 (DR7) (Homo sapiens, UniProt P01903+P01911, A100R/A102G/A103Q/D57E/D86V/E43K/F76Y/K127E/L162R/M171V/P40G/Q125H/Q99D/R33Q/R42Y/R54Q/S133A/S66F/T210M/V115G/Y107V/Y59L/Y89S); conditions: DRB1 *0701
[5] = target: HLA-DR DRB1*1302 (DR13) (Homo sapiens, UniProt P01903+P01911, A100E/A169T/K41T/L162R/M171V/P40S/Q125H/Q178H/Q39Y/Q99D/R42S/S66N/T262R/V115G/W38E/Y61H); conditions: DRBI *1302
Chain of HLA-DR DRB1*1302 (DR13) (P01903 26-254 limits assumed, other chains not shown): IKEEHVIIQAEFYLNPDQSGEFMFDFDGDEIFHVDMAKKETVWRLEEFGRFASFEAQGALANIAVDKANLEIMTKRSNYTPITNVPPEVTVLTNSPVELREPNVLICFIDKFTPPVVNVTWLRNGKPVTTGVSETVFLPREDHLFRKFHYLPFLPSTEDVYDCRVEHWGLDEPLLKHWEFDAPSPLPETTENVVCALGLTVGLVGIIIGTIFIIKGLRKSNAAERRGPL

[6] = target: HLA-DR DRB1*0901 (DR9) (Homo sapiens, UniProt P01903+P01911, A100R/A103E/D57H/D86V/F55Y/F60I/F76Y/I96F/K127E/L162R/M171V/P40D/Q125H/Q99R/R33Q/R42F/S133A/S66N/T210M/V115G/W38K/Y107V/Y59G/Y89S); conditions: DRB1 *0901
[7] = target: HLA-DR DRB1*1501 (DR15) (Homo sapiens, UniProt P01903+P01911); conditions: DRBI *1501
[8] = target: HLA-DR DRB4*0101 (DR53) (Homo sapiens, UniProt P01903+P13762, G164S); conditions: DRB4 *0101
[9] = target: HLA-DR DRB1*0802 (DR8) (Homo sapiens, UniProt P01903+P01911, A100R/A103L/A169T/F76Y/H45Y/I96F/K41T/L162R/M171V/P40S/Q125H/Q178H/Q39Y/Q99D/R218S/R42G/S66Y/V115G/W38E)
[10] = target: HLA-DR DRB1*1101 (DR11) (Homo sapiens, UniProt P01903+P01911, A100R/A169T/A87E/I96F/K41T/L162R/M171V/P40S/Q125H/Q178H/Q39Y/Q99D/R42S/S66Y/T262R/V115G/W38E); conditions: DRB1 *1101
Chain of HLA-DR DRB1*1101 (DR11) (P01903 26-254 limits assumed, other chains not shown): as above

[11] = target: HLA-DR DRB1*0101 (DR1) (Homo sapiens, UniProt P01903+P01911, A100R/D57E/F55L/F60I/F76Y/I96L/L162R/M171V/P40L/Q125E/R42F/V115G/Y59C); conditions: DRB1 *0101
[12] = target: HLA-DR DRB1*0301 (DR3) (Homo sapiens, UniProt P01903+P01911, A100K/A102G/A103R/A169T/F55Y/I96L/K41T/L162R/M171V/P40S/Q125H/Q178H/Q39Y/R42S/S66N/T106N/T262R/W38E/Y61H)
Chain of HLA-DR DRB1*0301 (DR3) (P01903 26-254 limits assumed, other chains not shown): as above

Row | Compound | IC50 [1] | IC50 [2] | IC50 [3] | IC50 [4] | IC50 [5] | IC50 [6] | IC50 [7] | IC50 [8] | IC50 [9] | IC50 [10] | IC50 [11] | IC50 [12]
1 | CC[C@H](C)[C@H](NC(=O)[C@H](CO)NC(=O)[C@H](CO)NC(=O)[C@H](CC(=O)O)NC(=O)[C@H](C)NC(=O)[C@H](CC(N)=O)NC(=O)[C@@H](NC(=O)[C@H](Cc1ccc(O)cc1)NC(=O)[C@H](C)NC(=O)[C@@H](NC(=O)CNC(=O)[C@H](CCCNC(=N)N)NC(=O)[C@@H](N)CCC(=O)O)C(C)C)[C@@H](C)CC)C(=O)N[C@@H](CCC(=O)O)C(=O)NCC(=O)O | 6.85 µM | 6.76 µM | ≥ 200 µM | 34 µM | 3.69 µM | 25.5 µM | 30.3 µM | 0.087 µM | > 163 µM | > 50 µM | 2.44 µM | 
2 | CC[C@H](C)[C@H](NC(=O)CNC(=O)[C@H](CCCNC(=N)N)NC(=O)[C@H](CCCNC(=N)N)NC(=O)[C@H](Cc1ccc(O)cc1)NC(=O)[C@H](C)NC(=O)[C@H](Cc1ccc(O)cc1)NC(=O)[C@@H](N)CCC(=O)O)C(=O)N[C@@H](C)C(=O)N[C@@H](CCC(=O)O)C(=O)N[C@@H](C)C(=O)N[C@H](C(=O)NCC(=O)N[C@@H](CC(C)C)C(=O)N1CCC[C@H]1C(=O)O)C(C)C | 8.77 µM | 0.213 µM | 1.2 µM | 0.07 µM | 5.22 µM | 0.067 µM | > 45.5 µM | 6.32 µM | 0.596 µM | 2.59 µM | 0.0051 µM | 
3 | CC[C@H](C)[C@H](NC(=O)CNC(=O)[C@H](CCC(N)=O)NC(=O)[C@H](CC(C)C)NC(=O)[C@@H](NC(=O)CNC(=O)[C@H](CC(N)=O)NC(=O)[C@H](CS)NC(=O)[C@@H](NC(=O)[C@H](CC(C)C)NC(=O)[C@@H]1CCCN1C(=O)CNC(=O)CN)C(C)C)C(C)C)C(=O)N[C@H](C(=O)N[C@@H](CO)C(=O)O)[C@@H](C)O | > 6.57 µM | 0.068 µM | 13.4 µM | > 35.7 µM | 0.036 µM | 16.3 µM | 30.3 µM | 0.815 µM | 9.33 µM | 1.83 µM | 3.35 µM | 
4 | CC[C@H](C)[C@H](NC(=O)[C@H](CO)NC(=O)[C@@H](NC(=O)CN)C(C)C)C(=O)N[C@@H](Cc1c[nH]c2ccccc12)C(=O)N[C@@H](CC(N)=O)C(=O)N1CCC[C@H]1C(=O)N[C@H](C(=O)N[C@@H](CC(C)C)C(=O)N[C@@H](CC(C)C)C(=O)N[C@@H](Cc1c[nH]c2ccccc12)C(=O)N[C@@H](CCC(N)=O)C(=O)N1CCC[C@H]1C(=O)N[C@H](C(=O)N1CCC[C@H]1C(=O)O)[C@@H](C)CC)[C@@H](C)CC | 4.43 µM |  | 0.523 µM | 4.99 µM |  | 3.98 µM | 0.005 µM | 0.492 µM | 11 µM |  | 0.044 µM | 56.3 µM
5 | CSCC[C@H](NC(=O)CNC(=O)CNC(=O)[C@H](CCCNC(=N)N)NC(=O)[C@@H](NC(=O)[C@H](CCC(N)=O)NC(=O)[C@H](C)NC(=O)[C@@H](NC(=O)[C@@H](NC(=O)[C@H](CC(C)C)NC(=O)[C@H](Cc1c[nH]cn1)NC(=O)[C@H](Cc1ccc(O)cc1)NC(=O)[C@H](CCCCN)NC(=O)[C@H](Cc1ccccc1)NC(=O)[C@@H](N)CCSC)[C@@H](C)O)C(C)C)C(C)C)C(=O)O | 3.65 µM | 0.018 µM | 0.0058 µM | 0.072 µM | 1.61 µM | 0.266 µM | 1.2 µM |  | 0.07 µM |  | 0.016 µM | 29 µM
6 | CC(C)C[C@H](NC(=O)[C@H](Cc1ccccc1)NC(=O)CNC(=O)[C@H](CC(C)C)NC(=O)[C@H](CO)NC(=O)[C@H](CC(C)C)NC(=O)[C@H](CO)NC(=O)[C@H](C)NC(=O)[C@H](C)NC(=O)[C@H](CCCNC(=N)N)NC(=O)[C@H](C)NC(=O)[C@H](CC(C)C)NC(=O)[C@H](CC(C)C)NC(=O)[C@H](CC(C)C)NC(=O)[C@@H]1CCCN1)C(=O)O | > 9.74 µM |  | 0.151 µM |  | 0.012 µM | 0.058 µM |  | 0.052 µM | 0.037 µM |  | 0.01 µM | > 81.8 µM
7 | CSCC[C@H](NC(=O)[C@@H](NC(=O)[C@H](CCCCN)NC(=O)[C@@H](NC(=O)[C@H](C)NC(=O)[C@H](CC(=O)O)NC(=O)[C@@H](N)[C@@H](C)O)C(C)C)C(C)C)C(=O)N[C@@H](CC(=O)O)C(=O)N[C@@H](CC(C)C)C(=O)N1CCC[C@H]1C(=O)N[C@H](C(=O)N[C@@H](CCC(N)=O)C(=O)N[C@@H](CCC(=O)O)C(=O)N1CCC[C@H]1C(=O)N[C@@H](C)C(=O)O)[C@@H](C)O | > 13.5 µM | > 80 µM | > 200 µM | > 41.7 µM | > 35 µM | > 107 µM | > 45.5 µM | 0.747 µM | 20.9 µM | > 50 µM | > 50 µM | 
